From patent US20250195483A1, “SPIRO PIPERIDINE DERIVATIVES AS INHIBITORS OF APOL1 AND METHODS OF USING SAME” (Vertex Pharmaceuticals Incorporated, priority 2022, published 2025)

Biological target: T1, APOL1 (Homo sapiens, UniProt O14791)
T1 sequence (O14791 1-398): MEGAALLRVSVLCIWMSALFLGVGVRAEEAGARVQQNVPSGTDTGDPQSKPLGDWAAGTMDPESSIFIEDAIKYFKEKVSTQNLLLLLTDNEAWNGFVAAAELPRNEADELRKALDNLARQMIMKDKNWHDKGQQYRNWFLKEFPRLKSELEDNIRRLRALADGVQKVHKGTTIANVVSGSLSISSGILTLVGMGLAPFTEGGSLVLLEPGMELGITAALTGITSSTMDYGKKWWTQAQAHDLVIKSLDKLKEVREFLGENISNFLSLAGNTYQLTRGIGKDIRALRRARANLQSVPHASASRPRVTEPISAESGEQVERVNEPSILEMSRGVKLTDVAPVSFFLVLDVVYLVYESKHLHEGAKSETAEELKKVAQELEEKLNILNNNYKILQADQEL
Assay: MultiTox-Fluor Multiplex Cytotoxicity Assay, tet-inducible APOL1 T-REx-HEK293 cells (G0, G1 or G2 clone not specified for Table 20)
Type: cell-based
Conditions: tet-induced, 24 hours with compound, ratio of dead to live cells, read-out: IP50 (i.e., IC50 for cell proliferation)
Experimental: Human embryonic kidney (HEK293) cell lines containing a tet-inducible expression system (T-REx™; Invitrogen, Carlsbad, CA) and Adeno-associated virus site 1 pAAVS1-Puro-APOL1 G0 or pAAVS1-Puro-APOL1 G1 or pAAVS1-Puro-APOL1 G2 Clones G0 DC2.13, G1 DC3.25, and G2 DC4.44 were grown in a T-225 flask at ˜90% confluency in cell growth media (DMEM, 10% Tet-free FBS, 2 mM L-glutamine, 100 Units/mL penicillin-streptomycin, 5 μg/mL blasticidin S HCl, 1 μg/mL puromycin dihydrochloride). Cells were washed with DPBS and then trypsinized to dissociate from the flask. Media was used to quench the trypsin, cells were then pelleted at 200 g and resuspended in fresh cell assay media (DMEM, 2% Tet-free FBS, 2 mM L-glutamine, 100 Units/mL penicillin-streptomycin). Cells were counted and diluted to 1.17×10^6 cells/mL. 20 μL of cells (23,400/well) were dispensed in every well of a 384-well Poly-D-Lysine coated plate using the Multidrop dispenser. The plates were then incubated at room temperature for one hour.
Tetracycline is needed to induce APOL1 expression. 1 mg/mL tet stock in water was diluted to 250 ng/mL (5×) in cell assay media. 60 μL of cell assay media (no tet control) was dispensed in columns 1 and 24, and 60 μL of 5× tet in 384-PP-round bottom plate was dispensed in columns 2 to 23 with the Multidrop dispenser.
Assay ready plates from the Global Compound Archive were ordered using template 384_APOL1Cell_DR10n2_50 uM_v3. Compounds were dispensed at 200 nL in DMSO. The final top concentration was 10 μM with a 10 point 3-fold dilution in duplicate in the MultiTox assay.
20 μL was transferred from the 5× tet plate to the ARP and mixed, then 5 μL of 5× tet and the compounds were transferred to the cell plate and mixed using the Bravo. The cell plate was placed in the humidified 37° C. 5% CO2 incubator for 24 hours.
The MultiTox-Fluor Multiplex Cytotoxicity Assay was performed in accordance with the manufacturer's protocol. After cells were incubated with tet and compound for 24 hours, 25 μL of 1× MultiTox reagent was added to each well using the Multidrop dispenser; the plates were placed on a plate shaker (600 rpm) for 2 minutes, then centrifuged briefly and placed back in the 37° C. incubator for 30 minutes. The cell viability (excitation: 400 nm, emission: 486 nm) and cytotoxicity (excitation: 485 nm, emission: 535 nm) were read using the EnVision plate reader. A ratio of dead (cytotoxicity) to live (viability) cells was reported. Data was exported and analyzed in Genedata. Data was normalized using percent of control, no tet (100% viability), and 50 ng/mL tet treated (0% viability), and fit using Smart Fit settings in Genedata.

Row | Structure (SMILES) | IC50 [nM]
1 | NC(=O)C1OC2(CCN(Cc3cnn(-c4ccccc4)c3)CC2)c2cc(Cl)ccc21 (single isomer, unassigned) [Compound 193, 5-chloro-1′-[(1-phenylpyrazol-4-yl)methyl]spiro[1H-isobenzofuran-3,4′-piperidine]-1-carboxamide] | 50 to 500
2 | NC(=O)C1OC2(CCN(Cc3cnn(-c4ccccc4)c3)CC2)c2cc(Cl)ccc21 (single isomer, unassigned) [Compound 194, 5-chloro-1′-[(1-phenylpyrazol-4-yl)methyl]spiro[1H-isobenzofuran-3,4′-piperidine]-1-carboxamide] | ≤ 50
3 | Cc1ccc2c(c1)C1(CCN(Cc3cn(CCS(C)(=O)=O)nn3)[C@@H](C)C1)OC2(C)C (single isomer, unassigned) [Compound 290, (2′S)-2′,3,3,6-tetramethyl-1′-((1-(2-(methylsulfonyl)ethyl)-1H-1,2,3-triazol-4-yl)methyl)-3H-spiro[isobenzofuran-1,4′-piperidine]] | ≥ 500
4 | C[C@H]1CC2(CCN1Cc1cn(CCS(C)(=O)=O)nn1)OC(C)(C)c1ccc(Cl)cc12 (single isomer, unassigned) [Compound 291, (2′S)-5-chloro-1,1,2′-trimethyl-1′-[[1-(2-methylsulfonylethyl)triazol-4-yl]methyl]spiro[isobenzofuran-3,4′-piperidine]] | ≥ 500
5 | C[C@H]1CC2(CCN1Cc1cnn(-c3ccccc3)c1)OC(C(N)=O)c1ccc(Cl)cc12 (single isomer, unassigned) [Compound 293, (2′S)-5-chloro-2′-methyl-1′-[(1-phenylpyrazol-4-yl)methyl]spiro[1H-isobenzofuran-3,4′-piperidine]-1-carboxamide] | 50 to 500
6 | CNC(=O)C1OC2(CCN(Cc3cnn(-c4ccccc4)c3)[C@@H](C)C2)c2cc(Cl)ccc21 (single isomer, unassigned) [Compound 294, (2′S)-5-chloro-N,2′-dimethyl-1′-[(1-phenylpyrazol-4-yl)methyl]spiro[1H-isobenzofuran-3,4′-piperidine]-1-carboxamide] | ≥ 500
7 | C[C@H]1CC2(CCN1Cc1cnn(CCS(C)(=O)=O)c1)CC(O)c1ccc(Cl)cc12 (single isomer, unassigned) [Compound 306, (2′S)-5-chloro-2′-methyl-1′-[[1-(2-methylsulfonylethyl)pyrazol-4-yl]methyl]spiro[indane-3,4′-piperidine]-1-ol] | ≤ 50
8 | C[C@H]1CC2(CCN1Cc1cnn(CCS(C)(=O)=O)c1)CC(O)c1ccc(Cl)cc12 (single isomer, unassigned) [Compound 307, (2′S)-5-chloro-2′-methyl-1′-[[1-(2-methylsulfonylethyl)pyrazol-4-yl]methyl]spiro[indane-3,4′-piperidine]-1-ol] | ≤ 50
9 | C[C@H]1CC2(CCN1Cc1cnn(CCS(C)(=O)=O)c1)C(=O)Nc1ccc(Cl)cc12 (stereo in doubt) [Compound 74, (2′S, 3R)-5-chloro-2′-methyl-1′-[[1-(2-methylsulfonylethyl)pyrazol-4-yl]methyl]spiro[indoline-3,4′-piperidine]-2-one] | ≥ 500
10 | CS(=O)(=O)CCn1cc(CN2CCC3(CC2)C(=O)Nc2ccc(Cl)cc23)cn1 [Compound 1, 5-chloro-1′-[[1-(2-methylsulfonylethyl)pyrazol-4-yl]methyl]spiro[indoline-3,4′-piperidine]-2-one] | 50 to 500
11 | CC(CO)(CO)Cn1cc(CN2CCC3(CC2)C(=O)Nc2ccc(Cl)cc23)cn1 [Compound 2] | ≤ 50
12 | Nc1ncc(CN2CCC3(CC2)C(=O)Nc2ccc(Cl)cc23)s1 [Compound 3] | 50 to 500
13 | O=C1Nc2ccc(Cl)cc2C12CCN(Cc1cnn(CCO)c1)CC2 [Compound 4] | ≥ 500
14 | COc1cncc(CN2CCC3(CC2)C(=O)Nc2ccc(Cl)cc23)c1 [Compound 5] | ≥ 500
15 | CC(=O)Nc1ccc(CN2CCC3(CC2)C(=O)Nc2ccc(Cl)cc23)cc1 [Compound 6] | 50 to 500
16 | CC(C)Oc1ccc(CN2CCC3(CC2)C(=O)Nc2ccc(Cl)cc23)cc1 [Compound 7] | 50 to 500
17 | COc1ccc(CN2CCC3(CC2)C(=O)Nc2ccc(Cl)cc23)cc1F [Compound 8] | 50 to 500
18 | CN(C)c1ncc(CN2CCC3(CC2)C(=O)Nc2ccc(Cl)cc23)cn1 [Compound 9] | 50 to 500
19 | CC(C)(CO)Nc1ncc(CN2CCC3(CC2)C(=O)Nc2ccc(Cl)cc23)cn1 [Compound 10] | 50 to 500
20 | O=C1Nc2ccc(Cl)cc2C12CCN(Cc1cn[nH]c1)CC2 [Compound 11] | 50 to 500
21 | CCO/N=C(\C)c1ccc(CN2CCC3(CC2)C(=O)Nc2ccc(Cl)cc23)cn1 [Compound 12] | 50 to 500
22 | Cn1cc(CN2CCC3(CC2)C(=O)Nc2ccc(Cl)cc23)cn1 [Compound 13] | 50 to 500
23 | O=C1Nc2ccc(Cl)cc2C12CCN(Cc1cccc(OC(F)F)c1)CC2 [Compound 14] | ≥ 500

Row | Structure (SMILES) | IC50 [nM]
24 | N#Cc1ccc(CN2CCC3(CC2)C(=O)Nc2ccc(Cl)cc23)c(F)c1 [Compound 15] | ≥ 500
25 | O=C1Nc2ccc(Cl)cc2C12CCN(Cc1ccc(OC(F)F)cc1)CC2 [Compound 19] | ≥ 500
26 | N#Cc1cc(CN2CCC3(CC2)C(=O)Nc2ccc(Cl)cc23)ccn1 [Compound 20] | ≥ 500
27 | CS(=O)(=O)CCn1cc(CN2CCC3(CC2)C(=O)Nc2ccc(F)cc23)cn1 [Compound 21] | ≥ 500
28 | CS(=O)(=O)CCn1cc(CN2CCC3(CC2)C(=O)Nc2ccc(Br)cc23)cn1 [Compound 22] | 50 to 500
29 | Cc1ccc2c(c1)C1(CCN(Cc3cnn(CCS(C)(=O)=O)c3)CC1)C(=O)N2 [Compound 23] | 50 to 500
30 | Cc1ccc2c(c1)C1(CCN(Cc3cnn(CC4(C)COC4)c3)CC1)C(=O)N2 [Compound 24] | ≥ 500
31 | Cc1ccc2c(c1)C1(CCN(Cc3cnn(CC(=O)N(C)C)c3)CC1)C(=O)N2 [Compound 25] | ≥ 500
32 | Cc1ccc2c(c1)C1(CCN(Cc3cnn(CCO)c3)CC1)C(=O)N2 [Compound 26] | ≥ 500
33 | COCCn1cc(CN2CCC3(CC2)C(=O)Nc2ccc(C)cc23)cn1 [Compound 27] | ≥ 500
34 | CNC(=O)Cn1cc(CN2CCC3(CC2)C(=O)Nc2ccc(C)cc23)cn1 [Compound 28] | ≥ 500
35 | CS(=O)(=O)CCn1cc(CN2CCC3(CC2)C(=O)Nc2c(CO)cc(Cl)cc23)cn1 [Compound 29] | ≤ 50
36 | CS(=O)(=O)CCn1cc(CN2CCC3(CC2)C(=O)Nc2ccc(C#N)cc23)cn1 [Compound 30] | ≥ 500
37 | CS(=O)(=O)CCn1cc(CN2CCC3(CC2)C(=O)Nc2ccc(CC(F)F)cc23)cn1 [Compound 31] | ≥ 500
38 | CS(=O)(=O)CCn1cc(CN2CCC3(CC2)C(=O)Nc2ccc(C(F)C(F)F)cc23)cn1 (stereo not drawn) [Compound 32] | ≥ 500
39 | CS(=O)(=O)CCn1cc(CN2CCC3(CC2)C(=O)Nc2ccc(C(F)F)cc23)cn1 [Compound 33] | 50 to 500
40 | Cn1cc(CN2CCC3(CC2)C(=O)Nc2ccc(CC(F)F)cc23)cn1 [Compound 34] | ≥ 500
41 | O=C1Nc2ccc(CC(F)F)cc2C12CCN(Cc1cn[nH]c1)CC2 [Compound 35] | ≥ 500
42 | CS(=O)(=O)CCn1cc(CN2CCC3(CC2)C(=O)Nc2c(Cl)cc(Cl)cc23)cn1 [Compound 36] | 50 to 500
43 | CN1C(=O)C2(CCN(Cc3cnn(CCS(C)(=O)=O)c3)CC2)c2cc(Cl)ccc21 [Compound 37, 5-chloro-1-methyl-1′-[[1-(2-methylsulfonylethyl)pyrazol-4-yl]methyl]spiro[indoline-3,4′-piperidine]-2-one] | 50 to 500
44 | CN1C(=O)C2(CCN(Cc3cn[nH]c3)CC2)c2cc(Cl)ccc21 [Compound 38] | 50 to 500
45 | CN1C(=O)C2(CCN(Cc3cnn(C)c3)CC2)c2cc(Cl)ccc21 [Compound 39] | 50 to 500
